How the values were obtained:
Format in all cases: cell-based
[1] = system: HCT-116 cells; test: SRB assay cancer cell growth rate, HCT-116; conditions: relative to control (100%), 48 hours, KN510 200 μM, irinotecan 2.5 μM, 5-FU 5 μM, gemcitabine 2.5 μM, paclitaxel 10 nM, cisplatin 1 μM, alone or KN510 + anticancer drug
[2] = system: CAKI-1 cells; test: SRB assay cancer cell growth rate, CAKI-1; conditions: relative to control (100%), 48 hours, KN510 200 μM, irinotecan 2.5 μM, 5-FU 5 μM, gemcitabine 2.5 μM, paclitaxel 10 nM, cisplatin 1 μM, alone or KN510 + anticancer drug
[3] = system: ACHN cells; test: SRB assay cancer cell growth rate, ACHN; conditions: relative to control (100%), 48 hours, KN510 200 μM, irinotecan 2.5 μM, 5-FU 5 μM, gemcitabine 2.5 μM, paclitaxel 10 nM, cisplatin 1 μM, alone or KN510 + anticancer drug
[4] = system: UACC62 cells; test: SRB assay cancer cell growth rate, UACC62; conditions: relative to control (100%), 48 hours, KN510 200 μM, irinotecan 2.5 μM, 5-FU 5 μM, gemcitabine 2.5 μM, paclitaxel 10 nM, cisplatin 1 μM, alone or KN510 + anticancer drug
[5] = system: UACC257 cells; test: SRB assay cancer cell growth rate, UACC257; conditions: relative to control (100%), 48 hours, KN510 200 μM, irinotecan 2.5 μM, 5-FU 5 μM, gemcitabine 2.5 μM, paclitaxel 10 nM, cisplatin 1 μM, alone or KN510 + anticancer drug
[6] = system: OVCAR-8 cells; test: SRB assay cancer cell growth rate, OVCAR-8; conditions: relative to control (100%), 48 hours, KN510 200 μM, irinotecan 2.5 μM, 5-FU 5 μM, gemcitabine 2.5 μM, paclitaxel 10 nM, cisplatin 1 μM, alone or KN510 + anticancer drug
[7] = system: A549 cells; test: SRB assay cancer cell growth rate, A549; conditions: relative to control (100%), 48 hours, KN510 200 μM, irinotecan 2.5 μM, 5-FU 5 μM, gemcitabine 2.5 μM, paclitaxel 10 nM, cisplatin 1 μM, alone or KN510 + anticancer drug
[8] = system: PC-3 cells; test: SRB assay cancer cell growth rate, PC-3; conditions: relative to control (100%), 48 hours, KN510 200 μM, irinotecan 2.5 μM, 5-FU 5 μM, gemcitabine 2.5 μM, paclitaxel 10 nM, cisplatin 1 μM, alone or KN510 + anticancer drug
[9] = system: SR cells; test: SRB assay cancer cell growth rate, SR; conditions: relative to control (100%), 48 hours, KN510 200 μM, irinotecan 2.5 μM, 5-FU 5 μM, gemcitabine 2.5 μM, paclitaxel 10 nM, cisplatin 1 μM, alone or KN510 + anticancer drug
[10] = system: K562 cells; test: SRB assay cancer cell growth rate, K562; conditions: relative to control (100%), 48 hours, KN510 200 μM, irinotecan 2.5 μM, 5-FU 5 μM, gemcitabine 2.5 μM, paclitaxel 10 nM, cisplatin 1 μM, alone or KN510 + anticancer drug
[11] = system: colon cancer cell lines HCT-116 cells and COLO-205 cells; test: Synergistic effect of omeprazole and anticancer drug, colon cancer cell lines; conditions: anticancer drug combined with omeprazole (KN510) versus each treatment alone
[12] = system: renal cell carcinoma cell lines CAKI-1 and ACHN cells; test: Synergistic effect of omeprazole and anticancer drug, renal cancer cell lines; conditions: anticancer drug combined with omeprazole (KN510) versus each treatment alone
[13] = system: liver cancer cell lines SK-HEP-1 cells and Huh-7 cells; test: Synergistic effect of omeprazole and anticancer drug, liver cancer cell lines; conditions: anticancer drug combined with omeprazole (KN510) versus each treatment alone
[14] = system: glioblastoma (GBM) cell lines, U-87 MG cells and T87G cells; test: Synergistic effect of omeprazole and anticancer drug, glioblastoma cell lines; conditions: anticancer drug combined with omeprazole (KN510) versus each treatment alone
[15] = system: melanoma cell lines UACC62 cells and UACC257 cells; test: Synergistic effect of omeprazole and anticancer drug, melanoma cell lines; conditions: anticancer drug combined with omeprazole (KN510) versus each treatment alone
[16] = system: pancreatic ductal adenocarcinoma (PDAC) cell lines, MIA PaCa-2 cells and PANC-1 cells; test: Synergistic effect of omeprazole and anticancer drug, pancreatic cancer cell lines; conditions: anticancer drug combined with omeprazole (KN510) versus each treatment alone
[17] = system: MKN-28 cells and AGS cells, stomach cancer cells; test: Synergistic effect of omeprazole and anticancer drug, stomach cancer cells; conditions: anticancer drug combined with omeprazole (KN510) versus each treatment alone
[18] = system: ovarian cancer cells, OVCAR-8 cells and SK-OV-3 cells; test: Synergistic effect of omeprazole and anticancer drug, ovarian cancer cells; conditions: anticancer drug combined with omeprazole (KN510) versus each treatment alone
[19] = system: A549 and H23 lung cancer cells; test: Synergistic effect of omeprazole and anticancer drug, lung cancer cells; conditions: anticancer drug combined with omeprazole (KN510) versus each treatment alone
[20] = system: breast cancer cells, MDA-MB-231 cells and MCF-7 cells; test: Synergistic effect of omeprazole and anticancer drug, breast cancer cells; conditions: anticancer drug combined with omeprazole (KN510) versus each treatment alone
[21] = system: prostate cancer cells, PC-3 cells and DU-145 cells; test: Synergistic effect of omeprazole and anticancer drug, prostate cancer cells; conditions: anticancer drug combined with omeprazole (KN510) versus each treatment alone
[22] = system: leukemia cells, SR cells and K562 cells; test: Synergistic effect of omeprazole and anticancer drug, leukemia cells; conditions: anticancer drug combined with omeprazole (KN510) versus each treatment alone

SMILES | HCT-116 growth rate average (%) [1] [%] | CAKI-1 growth rate average (%) [2] [%] | ACHN growth rate average (%) [3] [%] | UACC62 growth rate average (%) [4] [%] | UACC257 growth rate average (%) [5] [%] | OVCAR-8 growth rate average (%) [6] [%] | A549 growth rate average (%) [7] [%] | PC-3 growth rate average (%) [8] [%] | SR growth rate average (%) [9] [%] | K562 growth rate average (%) [10] [%] | synergistic effect of omeprazole and an anticancer drug in combination, colon cancer [11] | synergistic effect of omeprazole and an anticancer drug in combination, renal cell carcinoma [12] | synergistic effect of omeprazole and an anticancer drug in combination, liver cancer [13] | synergistic effect of omeprazole and an anticancer drug in combination, glioblastoma (GBM) [14] | synergistic effect of omeprazole and an anticancer drug in combination, melanoma [15] | synergistic effect of omeprazole and an anticancer drug in combination, pancreatic cancer (PDAC) [16] | synergistic effect of omeprazole and an anticancer drug in combination, stomach cancer [17] | synergistic effect of omeprazole and an anticancer drug in combination, ovarian cancer [18] | synergistic effect of omeprazole and an anticancer drug in combination, lung cancer [19] | synergistic effect of omeprazole and an anticancer drug in combination, breast cancer [20] | also measured
N.N.[Cl][Pt][Cl] [Cisplatin] | 100.00 | 88.17 | 78.57 | 62.76 | 76.16 | 51.47 | 99.46 | 82.60 | 93.52 | 102.62 | Negative effect | Negative effect | Negative effect | Negative effect | Negative effect | Negative effect | Negative effect | Positive effect | Negative effect | Negative effect | synergistic effect of omeprazole and an anticancer drug in combination, ovarian cancer ([18]; listed as cisplatin): significantly inhibited; synergistic effect of omeprazole and an anticancer drug in combination, prostate cancer [21]: Negative effect; synergistic effect of omeprazole and an anticancer drug in combination, leukemia [22]: Positive effect; synergistic effect of omeprazole and an anticancer drug in combination, leukemia ([22]; listed as cisplatin): significantly inhibited
CCc1c2c(nc3ccc(OC(=O)N4CCC(N5CCCCC5)CC4)cc13)-c1cc3c(c(=O)n1C2)COC(=O)[C@]3(O)CC [Irinotecan] | 41.85 | 44.74 | 42.20 | −35.63 | 21.87 | 4.70 | 16.54 | 33.84 | 6.26 | 46.54 | Positive effect | Positive effect | Positive effect | Positive effect | Positive effect | Positive effect | Negative effect | Negative effect | Negative effect | Positive effect | synergistic effect of omeprazole and an anticancer drug in combination, colon cancer ([11]; listed as irinotecan): significantly inhibited; synergistic effect of omeprazole and an anticancer drug in combination, renal cell carcinoma ([12]; listed as irinotecan): significantly inhibited; synergistic effect of omeprazole and an anticancer drug in combination, liver cancer ([13]; listed as irinotecan): significantly inhibited; synergistic effect of omeprazole and an anticancer drug in combination, glioblastoma (GBM) ([14]; listed as irinotecan): significantly inhibited; synergistic effect of omeprazole and an anticancer drug in combination, melanoma ([15]; listed as irinotecan): significantly inhibited; synergistic effect of omeprazole and an anticancer drug in combination, pancreatic cancer (PDAC) ([16]; listed as irinotecan): significantly inhibited; synergistic effect of omeprazole and an anticancer drug in combination, breast cancer ([20]; listed as irinotecan): significantly inhibited; synergistic effect of omeprazole and an anticancer drug in combination, prostate cancer [21]: Negative effect; synergistic effect of omeprazole and an anticancer drug in combination, leukemia [22]: Positive effect; synergistic effect of omeprazole and an anticancer drug in combination, leukemia ([22]; listed as irinotecan): significantly inhibited

Source: patent publication US20240390352A1, “PHARMACEUTICAL COMPOSITION FOR PREVENTING OR TREATING CANCER COMPRISING CARNITINE ACYLCARNITINE CARRIER INHIBITOR AND ANTITUMOR AGENT” (NEW CANCER CURE - BIO CO.,LTD., priority 2021, published 2024)
